Laboratory results: PubChem BioAssay (NCI)
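All cell lines were grown in 96-well plates and treated with compound for 48 hours. TGI: total growth inhibition.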

Tests used:
Assay in all cases: NCI tumour cell line growth inhibition, 48 h
786-0 renal = tested on: 786-0 renal
A549 NSCLC = tested on: A549 NSCLC
ACHN renal = tested on: ACHN renal
CCRF-CEM leukemia = tested on: CCRF-CEM leukemia
DLD-1 colon = tested on: DLD-1 colon
EKVX NSCLC = tested on: EKVX NSCLC
HCC-2998 colon = tested on: HCC-2998 colon
HCT-116 colon = tested on: HCT-116 colon
HCT-15 colon = tested on: HCT-15 colon
HL-60(TB) leukemia = tested on: HL-60(TB) leukemia
HOP-18 NSCLC = tested on: HOP-18 NSCLC
HOP-62 NSCLC = tested on: HOP-62 NSCLC
HT29 colon = tested on: HT29 colon
IGROV1 ovarian = tested on: IGROV1 ovarian
K-562 leukemia = tested on: K-562 leukemia
KM12 colon = tested on: KM12 colon
KM20L2 colon = tested on: KM20L2 colon
LOX IMVI melanoma = tested on: LOX IMVI melanoma
LXFL 529 NSCLC = tested on: LXFL 529 NSCLC
M14 melanoma = tested on: M14 melanoma
M19-MEL melanoma = tested on: M19-MEL melanoma
MALME-3M melanoma = tested on: MALME-3M melanoma
MOLT-4 leukemia = tested on: MOLT-4 leukemia
NCI-H23 lung = tested on: NCI-H23 lung
NCI-H460 lung = tested on: NCI-H460 lung
NCI-H522 lung = tested on: NCI-H522 lung
OVCAR-3 ovarian = tested on: OVCAR-3 ovarian
OVCAR-5 ovarian = tested on: OVCAR-5 ovarian
OVCAR-8 ovarian = tested on: OVCAR-8 ovarian
RXF 393 renal = tested on: RXF 393 renal
SF-295 CNS = tested on: SF-295 CNS
SF-539 CNS = tested on: SF-539 CNS
SK-MEL-2 melanoma = tested on: SK-MEL-2 melanoma
SK-MEL-28 melanoma = tested on: SK-MEL-28 melanoma
SK-MEL-5 melanoma = tested on: SK-MEL-5 melanoma
SK-OV-3 ovarian = tested on: SK-OV-3 ovarian
SN12C renal = tested on: SN12C renal
SNB-75 CNS = tested on: SNB-75 CNS
SNB-78 CNS = tested on: SNB-78 CNS
SR leukemia = tested on: SR leukemia
SW-620 colon = tested on: SW-620 colon
TK-10 renal = tested on: TK-10 renal
U251 CNS = tested on: U251 CNS
UACC-257 melanoma = tested on: UACC-257 melanoma
UACC-62 melanoma = tested on: UACC-62 melanoma
UO-31 renal = tested on: UO-31 renal
A498 renal = tested on: A498 renal
CAKI-1 renal = tested on: CAKI-1 renal
COLO 205 colon = tested on: COLO 205 colon
DMS 114 small cell lung = tested on: DMS 114 small cell lung
HOP-92 NSCLC = tested on: HOP-92 NSCLC
NCI-H226 lung = tested on: NCI-H226 lung
RPMI-8226 leukemia = tested on: RPMI-8226 leukemia
SF-268 CNS = tested on: SF-268 CNS

Measured: TGI

COC1CC(OC)C2OC(c3ccccc3)OCC2O1 (configuration not stated)
> 100 µM: 786-0 renal | A549 NSCLC | ACHN renal | CCRF-CEM leukemia | DLD-1 colon | EKVX NSCLC | HCC-2998 colon | HCT-116 colon | HCT-15 colon | HL-60(TB) leukemia | HOP-18 NSCLC | HOP-62 NSCLC | HT29 colon | IGROV1 ovarian | K-562 leukemia | KM12 colon | KM20L2 colon | LOX IMVI melanoma | LXFL 529 NSCLC | M14 melanoma | M19-MEL melanoma | MALME-3M melanoma | MOLT-4 leukemia | NCI-H23 lung | NCI-H460 lung | NCI-H522 lung | OVCAR-3 ovarian | OVCAR-5 ovarian | OVCAR-8 ovarian | RXF 393 renal | SF-295 CNS | SF-539 CNS | SK-MEL-2 melanoma | SK-MEL-28 melanoma | SK-MEL-5 melanoma | SK-OV-3 ovarian | SN12C renal | SNB-75 CNS | SNB-78 CNS | SR leukemia | SW-620 colon | TK-10 renal | U251 CNS | UACC-257 melanoma | UACC-62 melanoma | UO-31 renal

CN(C)c1ccc(/C=C(/C(=O)O)c2csc(-c3nc(/C(=C\c4ccc(N(C)C)cc4)C(=O)O)cs3)n2)cc1
> 100 µM: 786-0 renal | A498 renal | A549 NSCLC | ACHN renal | CAKI-1 renal | CCRF-CEM leukemia | COLO 205 colon | DLD-1 colon | DMS 114 small cell lung | EKVX NSCLC | HCC-2998 colon | HCT-116 colon | HCT-15 colon | HL-60(TB) leukemia | HOP-62 NSCLC | HOP-92 NSCLC | HT29 colon | IGROV1 ovarian | K-562 leukemia | KM12 colon | KM20L2 colon | LOX IMVI melanoma | LXFL 529 NSCLC | M14 melanoma | M19-MEL melanoma | MALME-3M melanoma | MOLT-4 leukemia | NCI-H226 lung | NCI-H23 lung | NCI-H460 lung | OVCAR-3 ovarian | OVCAR-5 ovarian | OVCAR-8 ovarian | RPMI-8226 leukemia | RXF 393 renal | SF-268 CNS | SF-295 CNS | SF-539 CNS | SK-MEL-2 melanoma | SK-MEL-28 melanoma | SK-MEL-5 melanoma | SK-OV-3 ovarian | SN12C renal | SNB-75 CNS | SNB-78 CNS | SW-620 colon | TK-10 renal | U251 CNS | UACC-257 melanoma | UACC-62 melanoma | UO-31 renal
